Assays:
[1] = Stability of cyclopropenones (shelf life, elevated temperature, solution); assay type: physicochemical; conditions: 3 days at 40° C. in aqueous and methanol solutions
From the text: Diphenyl cyclopropenones, such as 5a-c, 18a-c, and 19, had long shelf lives, and could withstand elevated temperatures. […] (Poloukhtine & Popik (2003) J. Org. Chem. 68: 7833-7840). The cyclopropenones are also stable in solution in the absence of light.

[2] = Rate measurements of cycloaddition of acetylenes with azides by UV spectroscopy in methanol; assay type: physicochemical; conditions: 25±0.1° C.
Method: The rate measurements of cycloaddition of acetylenes 6c and 4a were conducted by UV spectroscopy at 25±0.1° C. A calculated amount of 0.25 M solutions of an azide required to achieve desired azide concentration (6×10^−4-1.5×10^−2 M) was added to a thermally equilibrated ca. 6×10^−5 M solution of acetylene in MeOH. Reactions were monitored by following the decay of the characteristic absorbance of acetylenes ca. 317 nm (FIG. 6). Consumption of starting material followed a first order equation well and the pseudo-first order rate constants were obtained by the by least-squares fitting of the data to a single exponential equation. The dependence of the observed rates on the concentration of azides was linear.
The rate measurements of the cycloaddition reaction of acetylene 6c with azides was conducted by UV spectroscopy following the decay of the 317 nm band of 6c (as shown in FIG. 6) in the photolysate at various concentrations of azides from about 0.5 mM to about 20 mM). […]
Rate measurements were performed using Carry-300 Bio UV-Vis spectrometer equipped with a thermostatable cell holder. […] A calculated amount of 0.25 M solutions of an azide required to achieve desired azide concentration (6×10^−4−1.5×10^−2M) was added at once. Reactions were monitored by following the decay of the characteristic absorbance of acetylene 6c at approximately 317 nm (FIG. 6). […]

## CCCCOc1ccc2c(c1)CCc1cc(OCCCC)ccc1-c1c-2c1=O [5c, 4,9-dibutoxy-6,7-dihydro-1H-dibenzo[a,e]cyclopropa[c][8]annulen-1-one]
[1]
  Decomposition in solution in the absence of light: no decomposition

## 3,9-Dibutoxy-5,6-didehydro-11,12-dihydrodibenzo[a,e][8]annulen-2-yl [6c]
[2]; 1-phenyl-2-azidopropane
  Bimolecular rate constant, Rate: 0.0343 M⁻¹ s⁻¹
[2]; n-butyl azide
  Bimolecular rate constant, Rate: 0.0586 M⁻¹ s⁻¹

— patent US8426649B2, “Cyclopropenones and the photochemical generation of cyclic alkynes therefrom” (University of Georgia Research Foundation, Inc., priority 2009, dated 2013)
